Laboratory results as given in publication PMC11008770 (Nature structural & molecular biology, 2023).
Where two headings read alike, the source gives them in different places.

What was measured:
[1] = target: AE1; conditions: read-out: Kd of bicarbonate; NMR studies; cited from earlier work
[2] = target: AE1; conditions: read-out: Kd of bicarbonate; flux studies in erythrocytes; cited from earlier work
[3] = target: T1, AE1 (Homo sapiens, UniProt P02730); assay: Cellular bicarbonate uptake assay; assay type: cell-based
T1 sequence (P02730 1-911): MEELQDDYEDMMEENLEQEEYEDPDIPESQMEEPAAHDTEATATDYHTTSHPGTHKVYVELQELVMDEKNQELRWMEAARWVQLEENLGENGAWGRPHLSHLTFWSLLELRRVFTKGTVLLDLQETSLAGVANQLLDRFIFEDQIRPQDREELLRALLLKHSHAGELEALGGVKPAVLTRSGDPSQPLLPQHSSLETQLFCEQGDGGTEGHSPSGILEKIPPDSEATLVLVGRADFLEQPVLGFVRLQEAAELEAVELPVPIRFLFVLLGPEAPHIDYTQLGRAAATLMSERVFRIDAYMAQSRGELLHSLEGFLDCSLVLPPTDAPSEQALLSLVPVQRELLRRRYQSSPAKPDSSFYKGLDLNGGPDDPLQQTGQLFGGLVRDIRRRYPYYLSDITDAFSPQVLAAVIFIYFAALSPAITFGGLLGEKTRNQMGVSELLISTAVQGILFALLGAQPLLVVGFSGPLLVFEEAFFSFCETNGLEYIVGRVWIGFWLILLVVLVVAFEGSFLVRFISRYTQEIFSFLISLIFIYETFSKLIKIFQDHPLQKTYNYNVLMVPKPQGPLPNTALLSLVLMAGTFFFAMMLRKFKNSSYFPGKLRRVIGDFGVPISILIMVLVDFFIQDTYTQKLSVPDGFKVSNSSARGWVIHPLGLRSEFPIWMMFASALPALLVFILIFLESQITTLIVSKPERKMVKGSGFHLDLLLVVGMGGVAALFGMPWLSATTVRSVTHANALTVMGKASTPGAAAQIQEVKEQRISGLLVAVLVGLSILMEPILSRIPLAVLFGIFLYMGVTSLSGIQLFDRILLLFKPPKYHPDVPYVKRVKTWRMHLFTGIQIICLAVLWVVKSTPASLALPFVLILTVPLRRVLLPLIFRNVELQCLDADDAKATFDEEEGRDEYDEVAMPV

Row | SMILES | Kd [1] [mM] | Kd [2] [mM] | IC50 [3] [mM] | AE1 inhibition in cellular bicarbonate uptake, single dose ([3]; 50 μM throughout the experiment, n = 3)
1 | O=C(O)O [bicarbonate] | 5.4 | 2 | – | –
2 | O=C(O)c1cccnc1Nc1cccc(C(F)(F)F)c1 [NIF, Niflumic acid] | – | – | 0.015 | statistically significant AE1 inhibition
